Experimental data published in patent publication US7524849B2, “5-arylpyrimidines as anticancer agents” (Wyeth Holdings Corporation, priority 2003, dated 2009).
One block for each compound: values may come before it.

Experiments:
COLO 205 cells = assay: MTS cytotoxicity test with COLO 205 cells; type: cell-based, human; settings: three days with compound
Experimental: (§1) The assay, which is sold in kit form by Promega (Madison, Wis.; CellTiter 96 AQueous Non-Radioactive Cell Proliferation Assay), is based on the conversion by viable cells, but not by dead cells, of the tetrazolium salt, MTS (3-(4,5-dimethylthiazol-2-yl)-5-(3-carboxymethoxyphenyl)-2-(4-sulphophenyl)-2H-tetrazolium, inner salt), into a water-soluble colored formazan which is detected by spectrophotometry. Compounds are tested at nine concentrations, in order to determine IC50 values. For the test procedure, cells are harvested by trypsinization, washed, counted and distributed to wells of 96-well flat-bottom microtiter plates at 1000 cells per well in 200 μL of medium. In addition, one row of wells on a separate plate receives cells as above (“time 0” plate). All plates are incubated at 37° in humidified 5% CO2 in air for about 24 hr.
On day 2, compounds for test are diluted and added to wells. Compounds are dissolved in DMSO at 10 mg/mL. For each compound, nine serial 2-fold dilutions are prepared in DMSO. Ten μL of each dilution in DMSO are transferred to 100 μL of medium, mixed well, and then 5 μL of this dilution are transferred in quadruplicate to wells containing cells. The final high concentration of each compound is typically 5 μM. Plates are returned to the incubator for three days. At the time of drug addition to the experimental plates, the MTS assay is run on the “time 0” plate. This produces the “time 0 MTS value” which is related to the number of viable cells per well at the time of drug addition.
After three days of culture with test compounds (day 5 overall), the MTS assay is done on all wells of the experimental plates. The absorbance values of the quadruplicate sample wells are averaged and divided by the average of the “time 0” values. The average of control wells without drug, divided by the average “time 0” value, gives the maximal relative increase in MTS color yield due to cell growth during the final three days of culture. The average of control wells with high drug concentration, divided by the “time 0” value, gives the minimal relative color yield for cells that were completely killed. The nine values for each compound are plotted against concentration, and the concentration that produces a relative color yield half way between the maximum and minimum is taken as the IC50 value.
COLO 205 is a human colon carcinoma cell line that is used for comparative testing of the examples of this invention and several reference compounds. This line is sensitive to paclitaxel and vincristine.

[1] = system: highly purified tubulin (tubulin heterodimer); assay: Competitive binding test, [3H]vinblastine; design: species or system bovine; settings: competitor 100 μM, [3H]vinblastine 100 nM, percent of binding to control without competitor
Experimental: (§2) Medium is RPMI-1640 with L-glutamine, supplemented with 10% heat-inactivated fetal calf serum, 100 units/mL penicillin, and 100 μg/mL streptomycin (Gibco, Grand Island, N.Y.). Microtubule-associated protein (MAP)-rich tubulin, containing about 70% tubulin and 30% MAPs (#ML113), and highly purified tubulin (>99% pure, #TL238), both from bovine brain, are obtained from Cytoskeleton, Inc., Denver, Colo. PEM buffer (80 mM piperazine-N,N′-bis[2-ethanesulfonic acid], pH 6.9, 1 mM ethylene glycol-bis(β-aminoethyl ether)-N,N,N′,N′-tetraacetic acid, 1 mM magnesium chloride) and guanosine 5′-triphosphate (GTP) are also obtained from Cytoskeleton. […] [^3H]vinblastine, specific activity 9.60 Ci/mmol and MicroSpin G-50 columns are obtained from Amersham Biosciences (Piscataway, N.J.). […] Other reagents are obtained from Sigma (St. Louis, Mo.).
(§3) The binding of examples of this invention to highly purified tubulin is studied by competitive inhibition methods.
(§4) These solutions are incubated at 24° for 1 hr and then applied to MicroSpin G-50 columns which are centrifuged for 2 min at 3000 rpm in an Eppendorf 5415C microfuge. An aliquot of each column effluent (containing tubulin and bound radioligand) is mixed with scintillation fluid and counted in a liquid scintillation spectrometer. […] Quadruplicates are averaged, and the ability of the competitor to inhibit the binding of the radioligand is expressed as a percentage of control binding in the absence of any competitor.

[2] = system: highly purified tubulin (tubulin heterodimer); assay: Competitive binding test, [3H]colchicine; design: species or system bovine; settings: competitor 100 μM, [3H]colchicine 50 nM, percent of binding to control without competitor
Experimental: as §2, §3, §4

KB cells = assay: MTS cytotoxicity test with KB cells; type: cell-based, human; settings: mean of 2 experiments
Source text: (§5) Human cancer cell lines, unless otherwise noted, are obtained from the American Type Culture Collection (Rockville, Md.). The following drug-sensitive parental cell lines, and their derived drug-resistant counterparts, are obtained from the originators as listed: (a) S1 (parental line from a subclone of human colon carcinoma line LS174T) and derived S1-M1-3.2 (herein called S1-M1) which expresses the MXR drug transporter protein, are provided by Dr. L. Greenberger, Wyeth Research (Rabindran, S. K., He, H., Singh, M., Brown, E., Collins, K. I., Annable, T., and Greenberger, L. M. Reversal of a novel multidrug resistance mechanism in human colon carcinoma cells by fumitremorgin C. Cancer Res., 58: 5850-5858, 1998); (b) parental HL-60 human promyelocytic leukemia line and derived HL-60/ADR, which expresses the MRP1 drug transporter protein, are provided by Dr. M. Center, University of Kansas (McGrath, T., and Center, M. S. Adriamycin resistance in HL60 cells in the absence of detectable P-glycoprotein. Biochem. Biophys. […] J. Biol. Chem., 261: 7762-7770, 1986) via Dr. L. Greenberger, Wyeth Research.
as §1
(§6) On day 2, compounds for test are diluted and added to wells. Compounds are dissolved in DMSO at 10 mg/mL. For each compound, nine serial 2-fold dilutions are prepared in DMSO. Ten μL of each dilution in DMSO are transferred to 100 μL of medium, mixed well, and then 5 μL of this dilution are transferred in quadruplicate to wells containing cells. […] Plates are returned to the incubator for three days. At the time of drug addition to the experimental plates, the MTS assay is run on the “time 0” plate. This produces the “time 0 MTS value” which is related to the number of viable cells per well at the time of drug addition.
(§7) After three days of culture with test compounds (day 5 overall), the MTS assay is done on all wells of the experimental plates. The absorbance values of the quadruplicate sample wells are averaged and divided by the average of the “time 0” values. […] The nine values for each compound are plotted against concentration, and the concentration that produces a relative color yield half way between the maximum and minimum is taken as the IC50 value.

KB-8-5 cells = assay: MTS cytotoxicity test with KB-8-5 cells (moderate P-glycoprotein); type: cell-based, human; settings: KB 8.5 cells, mean of 2 experiments
Source text: as §5, §1, §6, §7

KB-V1 cells = assay: MTS cytotoxicity test with KB-V1 cells (very high P-glycoprotein); type: cell-based, human; settings: for IC50: KB VI cells, mean of 2 experiments
Source text: as §5, §1, §6, §7

HL-60 cells = assay: MTS cytotoxicity test with HL-60 cells; type: cell-based, human; settings: mean of 2 experiments
Source text: as §5, §1, §6, §7
(§8) HL-60/ADR cells overexpress the multidrug resistance protein MRP1 which mediates resistance to some chemotherapeutics (Gottesman, M. M., Fojo, T., and Bates, S. E. Multidrug resistance in cancer: role of ATP-dependent transporters. Nature Rev. Cancer, 2: 48-58, 2002). The IC50 values of representative examples of this invention, as well as reference compounds, on HL-60/ADR are compared to values on the sensitive parental HL-60 line.

HL-60/ADR cells = assay: MTS cytotoxicity test with HL-60/ADR cells (MRP1); type: cell-based, human; settings: for IC50: HL-60/ADR cells, mean of 2 experiments; for Ratio: IC50 on HL-60/ADR cells/IC50 on HL-60 cells
Source text: as §5, §1, §6, §7, §8

S1 cells = assay: MTS cytotoxicity test with S1 cells; type: cell-based, human; settings: mean of 2 experiments
Source text: as §5, §1, §6, §7
as §8, with “S1-M1” for “HL-60/ADR”, “MXR transporter” for “multidrug resistance protein MRP1”, “Miltidrug” for “Multidrug”, “S1” for “HL-60”

S1-M1 cells = assay: MTS cytotoxicity test with S1-M1 cells (MXR); type: cell-based, human; settings: for IC50: S1-M1 cells, mean of 2 experiments; for Ratio: IC50 on S1-M1 cells/IC50 on S1 cells
Source text: as §5, §1, §6, §7
as §8, with “S1-M1” for “HL-60/ADR”, “MXR transporter” for “multidrug resistance protein MRP1”, “Miltidrug” for “Multidrug”, “S1” for “HL-60”

MAP-rich tubulin = assay: Tubulin polymerization test with MAP-rich tubulin; type: biochemical, bovine; settings: 0.3 μM compound, mean A340 at 20 min, fold enhancement over control
Experimental: as §2
MAP-rich tubulin is dissolved in ice-cold PEM buffer containing 1 mM GTP (GPEM buffer) at a concentration of 1.3 mg/mL. The solution is centrifuged at top speed in an Eppendorf model 5415C microcentrifuge (Brinkmann Instruments, Westbury, N.Y.) for 10 min at 4° immediately before use. The tubulin solution is added to wells of a ½-area 96-well plate (Costar No. 3696, Corning, Inc., Corning, N.Y.) already containing the compounds of interest. Each compound is tested in duplicate at a final concentration of 0.3 μM in a volume of 110 μL per well. The final DMSO concentration in all wells is 0.3%. Control reactions, which receive compound solvent only, are done in quadruplicate. The plate is put in a SpectraMax Plus plate reader (Molecular Devices Corp. Sunnyvale, Calif.) thermostated at 24° and the absorbance of each well at 340 nm, a measure of the appearance of turbidity due to tubulin polymer formation, is determined every minute for 60 minutes. The absorbance at time 0 for each well is subtracted from each of the subsequent absorbance readings for that well, and then the duplicates are averaged.

Structure (SMILES): CN(C#N)c1nc(Cl)c(-c2c(F)cc(F)cc2F)c(NCC(F)(F)F)n1 [Example 1, 4-Chloro-6-[(2,2,2-trifluoroethyl)amino]-5-(2,4,6-trifluorophenyl)pyrimidin-2-yl(methyl)cyanamide]
IC50 (COLO 205 cells; Homo sapiens, 72 h): 214 nM
[3H]Vinblastine binding, Mean [1]: 30 % of control
[3H]Colchicine binding, Mean [2]: 47 % of control

Structure (SMILES): CN(C)CCCOc1cc(F)c(-c2c(Cl)nc(N(C)C#N)nc2NCC(F)(F)F)c(F)c1 [Example 19, 4-Chloro-5-{4-[3-(dimethylamino)propoxy]-2,6-difluorophenyl}-6-[(2,2,2-trifluoroethyl)amino]pyrimidin-2-yl(methyl)cyanamide]
IC50 (COLO 205 cells; Homo sapiens, 72 h): 52 nM
IC50 (KB cells; Homo sapiens): 63 nM
IC50 (KB-8-5 cells; Homo sapiens): 69 nM
IC50 (KB-V1 cells; Homo sapiens, KB-V1): 176 nM
IC50 (HL-60 cells; Homo sapiens): 66 nM
IC50 (HL-60/ADR cells; Homo sapiens, HL60/ADR): 60 nM
Ratio (HL-60/ADR cells): 0.9
IC50 (S1 cells; Homo sapiens): 88 nM
IC50 (S1-M1 cells; Homo sapiens): 88 nM
Ratio (S1-M1 cells): 1.0
[3H]Vinblastine binding, Mean [1]: 22 % of control
[3H]Colchicine binding, Mean [2]: 116 % of control

Structure (SMILES): CNCCCOc1cc(F)c(-c2c(Cl)nc(-c3cnccn3)nc2C2CCCCCC2)c(F)c1.O=C(O)C(F)(F)F [Example 33a, N-{3-[4-(4-Chloro-6-cycloheptyl-2-pyrazin-2-ylpyrimidin-5-yl)-3,5-difluorophenoxy]propyl}-N-methylamine trifluoroacetic acide salt]
IC50 (COLO 205 cells): 8.2 nM
IC50 (KB cells): 6.8 nM
IC50 (KB-8-5 cells): 7.5 nM
Ratio VI/KB (KB-V1 cells; IC50 on KB VI cells/IC50 on KB cells): 13
IC50 (KB-V1 cells): 91 nM
recognition by P-glycoprotein (KB-V1 cells; inferred from change in IC50 KB-V1 vs KB): show recognition by P-glycoprotein, but much less than that shown by paclitaxel and vincristine
IC50 (HL-60 cells): 6.9 nM
IC50 (HL-60/ADR cells): 6.1 nM
Ratio (HL-60/ADR cells): 0.9
IC50 (S1 cells): 8.5 nM
Ratio (S1-M1 cells): 1.4
IC50 (S1-M1 cells): 12 nM
A340 Compound / A340 Control (MAP-rich tubulin): 0.5

Further lines, with some results ahead:

melting point: 47 to 49 °C
Structure (SMILES): CN(C)CCCOc1cc(F)c(-c2c(Cl)nc(-n3ccnc3)nc2NCC(F)(F)F)c(F)c1 [Example 31, 6-Chloro-5-{4-[3-(dimethylamino)propoxy]-2,6-difluorophenyl}-2-(1H-imidazol-1-yl)-N-(2,2,2-trifluoroethyl)pyrimidin-4-amine]
IC50 (COLO 205 cells; Homo sapiens, 72 h): 682 nM

melting point: 168 to 170 °C
Structure (SMILES): Fc1cc(F)c(-c2c(Cl)nc(-n3ccnc3)nc2NCC(F)(F)F)c(F)c1 [Example 15, 6-Chloro-2-(1H-imidazol-1-yl)-N-(2,2,2-trifluoroethyl)-5-(2,4,6-trifluorophenyl)pyrimidin-4-amine]
IC50 (COLO 205 cells; Homo sapiens, 72 h): 3030 nM
